Assays:
Format in all cases: cell-based, human
[1] = tested on: Peripheral blood mononuclear cells co-cultured with venular endothelial cells (HUVEC) (LPS system); assay: BioMAP LPS system, Example 827
Experimental: (§1) The BioMAP platform (BioMAP® Diversity PLUS Panel from Eurofins) is an in vitro phenotypic profiling technology that screened the compounds of the present disclosure (hereafter indicated as test agents) in human primary cell-based systems modelling complex tissue and disease states. The BioMAP assays were performed using the Eurofin's BioMAP Technology Platform as (see references 1 to 13 in the example 824 section) to model different diseases on primary cell-based model systems. These systems consisted of either single primary cell types or co-culture cells. Adherent cell types were cultured or co-cultured in 96 or 384-well plates until confluence followed by the addition of compounds prepared in DMSO at a final concentration of ≤0.1%. In each cell-based system, primary cells from heathy donors (2-6 donors) were pooled and treated with compounds at 1 and 10 μM dose 1 h prior to stimulation and remain in culture as indicated in
(§2) Example 825, Example 826, Example 827, Example 828, Example 829, Example 830, Example 831, Example 832, Example 833, Example 834, Example 835, Example 836 and Example 837. For on the BioMAP® Diversity PLUS® Panel, please see the following references, which are incorporate herein.
Following the general procedure as described in Example 824, Peripheral blood mononuclear cells co-cultured with venular endothelial cells (HUVEC) (LPS system) were stimulated with LPS for 24 h in the presence or absence of compounds, to model cardiovascular disease and chronic inflammation. Biomarkers read out were; MCP-1, VCAM-1, Thrombomodulin, Tissue Factor, CD40, E-selectin, CD69, IL-8, IL-1α, M-CSF, sPGE2, SRB and TNFα.

[2] = tested on: Venular Endothelial cells (HUVEC) (3C system); assay: BioMAP 3C system, Example 825
Experimental: as §1, with “In each cell-based system, primary cells from heathy donors (2-6 donors) were pooled and treated with compounds at 1 and 10 μM dose 1 h prior to stimulation and remain in culture as indicated in” left out
Following the general procedure as described in Example 824, Venular Endothelial cells (HUVEC) (3C system) were treated with IL-1β, TNFα, IFNγ for 24 h to model Th1 driven cardiovascular and chronic inflammation diseases in the presence or absence of the compounds. Biomarker read out were; Tissue Factor, ICAM-1, E-selectin, uPAR (CD87), IL-8, […], HLA-DR, proliferation and SRB (Sulfo-rhodamine i.e. staining for protein content).

[3] = tested on: Venular endothelial cells co-cultured with macrophages (Mphg system); assay: BioMAP Mphg system, Example 836
Experimental: as §1, §2
Following the general procedure as described in Example 824, Venular endothelial cells co-cultured with macrophages (Mphg system) and treated with TLR2 ligand for 24 h in the presence or absence of the compounds to mimic cardiovascular inflammation, restenosis and chronic inflammation. Biomarkers read out were; MCP-1, MIP-1α, VCAM-1, CD40, E-selectin, CD69, IL-8, IL-1α, M-CSF, sIL-10 and SRB.

[4] = tested on: Venular Endothelial cells (HUVEC) (4H system); assay: BioMAP 4H system, Example 826
Experimental: as §1, §2
Following the general procedure as described in Example 824, Venular Endothelial cells (HUVEC) (4H system) were treated with IL-4 and histamine for 24 h to model Th2 driven allergy and autoimmunity in the presence or absence of compounds. Biomarkers read out were; MCP-1, Eotaxin-3. VCAM-1, P-selectin, uPAR (CD87), SRB and VEGFRII.

[5] = tested on: Peripheral blood mononuclear cells co-cultured with venular endothelial cells (Sag system); assay: BioMAP Sag system, Example 828
Experimental: as §1, §2
Following the general procedure as described in Example 824, Peripheral blood mononuclear cells were co-cultured with venular endothelial cells and treated with soluble antigen (T-cell ligands) (Sag system) in the presence or absence of compounds to model autoimmune and chronic inflammation. Biomarkers read out were; MCP-1, CD38, CD40, E-selectin, CD69, IL-8, MIG, PBMC cytotoxicity, Proliferation and SRB.

[6] = tested on: Bronchial epithelial cells co-cultured with dermal fibroblast (BF4T system); assay: BioMAP BF4T system, Example 830
Experimental: as §1, §2
Following the general procedure as described in Example 824, Bronchial epithelial cells were co-cultured with dermal fibroblast (BF4T system) and were treated with TNFα and IL-4 for 24 h in the presence or absence of the compounds to model asthma, allergy, fibrosis, lung inflammation. Biomarkers read out were; MCP-1, Eotaxin-3, VCAM-1, ICAM-1, CD90, IL-8, IL-1α, keratin 8/18, MMP-1, MMP-3, MMP-9, PAI-1, SRB, tPA, uPA.

[7] = tested on: Bronchial epithelial cells (BE3C system); assay: BioMAP BE3C system, Example 831
Experimental: as §1, §2
Following the general procedure as described in Example 824, Bronchial epithelial cells (BE3C system) were treated with IL-1f3, TNFα and IFNγ for 24 h in the presence or absence of the compounds to model lung inflammation and chronic obstructive pulmonary disease (COPD). Biomarkers read out were; ICAM-1, uPAR, IP-10, I-TAC, IL-8, MIG, EGFR, HLA-DR, IL-1α, Keratin 8/18, MMP-1, MMP-9, PAI-1, SRB, tPA, uPA.

[8] = Example 988, concentration tested 1 uM
[9] = procedure of Example 827, concentration tested 1 uM
[10] = procedure of Example 825, concentration tested 10 uM

C/C=C/C(=O)SCCNC(=O)CCNC(=O)[C@@H]1OP(=O)(O)OCC1(C)C [Compound 36]
≥20%: % decrease in M-CSF [1, 8] | % decrease in IL-8 ([1]; LPS system, 1 uM) | % decrease in M-CSF ([1]; LPS system, 1 uM) | % decrease in IL-8 [1, 9] | % increase in Proliferation (HUVEC) ([2]; 3C system, 10 uM) | % increase in Proliferation (HUVEC) ([2]; concentration tested 10 uM) | % decrease in E-Selectin ([4]; 4H system, 1 uM) | % decrease in VEGFRII ([4]; 4H system, 1 uM) | % decrease in E-Selectin ([4]; concentration tested 1 uM) | % decrease in VEGFRII ([4]; concentration tested 1 uM)
≥10%: % decrease in IL-1α ([1]; LPS system, 1 uM) | % decrease in Thrombomodulin ([1]; LPS system, 1 uM) | % decrease in Tissue Factor ([1]; LPS system, 10 uM) | % decrease in sPGE2 ([1]; LPS system, 10 uM) | % decrease in sTNFα ([1]; LPS system, 10 uM) | % decrease in IL-1α ([1]; concentration tested 1 uM) | % decrease in Thrombomodulin ([1]; concentration tested 1 uM) | % decrease in Tissue Factor ([1]; concentration tested 10 uM) | % decrease in sTNFα ([1]; concentration tested 10 uM) | % decrease in IL-8 ([2]; 3C system, 10 uM) | % decrease in IL-8 [2, 10] | % increase in MIP-1α ([3]; Mphg system, 10 uM) | % decrease in Eotaxin-3 ([4]; 4H system, 1 uM) | % decrease in MCP-1 ([4]; 4H system, 1 uM) | % decrease in Eotaxin-3 ([4]; concentration tested 1 uM) | % decrease in MCP-1 ([4]; concentration tested 1 uM) | % decrease in CXCL8/IL-8 ([5]; Sag system, 10 uM) | % decrease in CXCL8/IL-8 ([5]; concentration tested 10 uM)

COC(=O)CCC(=O)SCCNC(=O)CCNC(=O)[C@@H]1OC(C)(CC(=O)OC)OCC1(C)C (some centres unmarked) [Compound 633]
≥20%: % decrease in IL-8 ([1]; LPS system, 1 uM) | % decrease in Thrombomodulin ([1]; LPS system, 1 uM) | % decrease in Thrombomodulin ([1]; concentration tested 1 uM) | % decrease in IL-8 [1, 9] | % increase in Proliferation (HUVEC) ([2]; 3C system, 1 uM) | % decrease in IL-8 ([2]; 3C system, 10 uM) | % increase in Proliferation (HUVEC) ([2]; concentration tested 1 uM) | % decrease in IL-8 [2, 10] | % decrease in E-Selectin ([4]; 4H system, 1 uM) | % decrease in E-Selectin ([4]; concentration tested 1 uM)
≥10%: % decrease in MMP-9 ([6]; 1 uM) | % increase in Eotaxin-3 ([6]; 10 uM) | % increase in IL-8 ([7]; 1 uM) | % decrease in MMP-9 ([7]; 10 uM) | % decrease in M-CSF [1, 8] | % decrease in M-CSF ([1]; LPS system, 1 uM) | % decrease in Tissue Factor ([1]; LPS system, 1 uM) | % decrease in sPGE2 ([1]; LPS system, 1 uM) | % decrease in sTNFα ([1]; LPS system, 1 uM) | % increase in sTNFα ([1]; LPS system, 10 uM) | % decrease in Tissue Factor ([1]; concentration tested 1 uM) | % decrease in sTNFα ([1]; concentration tested 1 uM) | % increase in sTNFα ([1]; concentration tested 10 uM) | % decrease in VCAM-1 ([3]; procedure of Example 836, 1 uM) | % decrease in α-SMA ([3]; procedure of Example 836, 10 uM) | % decrease in Eotaxin-3 ([4]; 4H system, 1 uM) | % decrease in VEGFRII ([4]; 4H system, 1 uM) | % decrease in MCP-1 ([4]; 4H system, 10 uM) | % decrease in Eotaxin-3 ([4]; concentration tested 1 uM) | % decrease in VEGFRII ([4]; concentration tested 1 uM) | % decrease in MCP-1 ([4]; concentration tested 10 uM)
